Patent US20150265703A1, “COMBINATION THERAPY OF AN AFUCOSYLATED CD20 ANTIBODY WITH A mTOR INHIBITOR” (ROCHE GLYCART AG, priority 2010, published 2015)

Tested on: SU-DHL-4 human lymphoma cells
Assay: Tumor growth inhibition study in vivo, SC SU-DHL-4 tumors in SCID beige mice
Conditions: for SU-DHL-4 tumors growth in comparison with tumors from vehicle-treated animals: 3 mg/kg, single agent; for T/C (%) values of the treatment groups compared to the vehicle group: day 46 after tumor cell injection, GA101 3 mg/kg IV Q7Dx4, Torisel 3 mg/kg IP Q3Dx10, SC SU-DHL-4 tumors, SCID beige mice
Method: Test Agents Type II anti-CD20 antibody B-HH6-B-KV1 GE (=humanized B-Ly1, glycoengineered B-HH6-B-KV1=GA101; see WO 2005/044859 and WO 2007/031875) was provided from GlycArt, Schlieren, Switzerland. Antibody buffer included histidine, trehalose and polysorbate 20. Antibody solution was diluted appropriately in PBS from stock for prior injections. Temsirolimus (Torisel®, 25 mg/ml, Wyeth Pharmaceuticals) was supplied by Oncodesign and stored at +4° C. protected from light according to the supplier's instructions.
SU-DHL-4 human lymphoma cells (DSMZ NO.: ACC 495) were grown as a suspension at 37° C. in a humidified atmosphere (5% CO2, 95% air). The culture medium was RPMI 1640 containing 2 mM L-glutamine (Ref BE12-702F, Batch N° 8MB0056, Lonza, Verviers, Belgium) and supplemented with 10% fetal bovine serum (Ref 3302, Batch N^o P282005, Lonza). The cells were counted in a hemocytometer and their viability was assessed by 0.25% trypan blue exclusion.
Female CB17 SCID beige mice, 5-6 week-old and weighing 16-20 g, were obtained from Charles River (L'Arbresle, France).
Ten millions (10^7) SU-DHL-4 tumor cells in 100 μl of PBS with matrigel (50:50, BD Biosciences, France) were subcutaneously (SC) injected into the right flank of 52 female SCID beige mice.
All study data, including animal body weight measurements, tumor volume, clinical and mortality records, and drug treatment management were managed using Vivo Manager® software (Biosystemes, Dijon, France).
Isoflurane Forene (Minerve, Bondoufle, France) was used to anaesthetize the animals before SC inoculation of tumor cells, IV injection of compounds and sacrifice. Mortality, clinical signs and behaviour were recorded every day. Animal body weights and tumor volumes were monitored and recorded twice a week.
When the tumors reached a mean volume of 173±95 mm^3, 40 out of 52 tumor bearing […] mice were distributed in 4 groups of 10 mice. The treatment schedule was chosen as following: • Mice from group 1 received once weekly IV bolus injection of vehicle for 4 consecutive weeks (Q7Dx4). • Mice from group 2 received once weekly IV bolus injection of anti-CD20 antibody GA101 (B-HH6-B-KV1 GE) at 3 mg/kg/inj for 4 consecutive weeks (Q7Dx4). • Mice from group 3 received once daily IP injection of Torisel® at 3 mg/kg/inj with a 3-day interval between each dosing and a total of 10 injections (Q3Dx10). • Mice from group 4 received once weekly IV bolus injection of anti-CD20 antibody GA101 (B-HH6-B-KV1 GE) at 3 mg/kg/inj for 4 consecutive weeks (Q7Dx4) in combination with once daily IP injection of Torisel® at 3 mg/kg/inj with a 3-day interval between each dosing and a total of 10 injections (Q3Dx10)].
The antitumor efficacy of anti-CD20 antibody GA101 (B-HH6-B-KV1 GE) alone and in combination with Torisel® was examined. […]

CO[C@H]1C[C@@H]2CC[C@@H](C)[C@@](O)(O2)C(=O)C(=O)N2CCCC[C@H]2C(=O)O[C@H]([C@H](C)C[C@@H]2CC[C@@H](OC(=O)C(C)(CO)CO)[C@H](OC)C2)CC(=O)[C@H](C)/C=C(\C)[C@@H](O)[C@@H](OC)C(=O)[C@H](C)C[C@H](C)/C=C/C=C/C=C/1C [Torisel, Temsirolimus]
SU-DHL-4 tumors growth in comparison with tumors from vehicle-treated animals: partially delayed
T/C (%) values of the treatment groups compared to the vehicle group: 60%

GA101: Type II anti-CD20 antibody, humanized B-Ly1, glycoengineered B-HH6-B-KV1 (VH SEQ ID NO:7, VL SEQ ID NO:20), afucosylated IgG1
SU-DHL-4 tumors growth in comparison with tumors from vehicle-treated animals: partially delayed
T/C (%) values of the treatment groups compared to the vehicle group: 51%
